Source: patent US7868135B2, “Compositions of lipopeptide antibiotic derivatives and methods of use thereof” (priority 2003, dated 2011)
Starred links: 1 amine or outer side, 2 acyl side, 3 side chain; linkers in the order of their positions; H or OH if unused. Positions of bridges follow the written chain, without caps; N, C: chain ends. Non-standard residues stand in square brackets, D forms with d. Residues, ends and D or L forms follow the SMILES beside them. ξ: configuration not given here. *: point of attachment. ξAbu(3ξ-NHCOCH2NH2) = CC(NC(=O)CN)C(N)C(=O)O; ξAbu(βξ-NH2) = CC(N[*:3])C(N[*:1])C(=O)[*:2]; Phac(3-amino) = O=C(Cc1cccc(N[*:1])c1)[*:2]; X21 = CC(=O)SCC(=O)NC(C)C(N[*:1])C(=O)[*:2]; Arg(Me2s) = CN=C(NC)NCCC[C@H](N)C(=O)O; Pentadecanoyl = CCCCCCCCCCCCCCC(=O)*; Bta = N[C@@H](Cc1csc2ccccc12)C(=O)O; ξAsp(βξ-Me) = CC(C(=O)O)C(N)C(=O)O; Tridecanoyl = CCCCCCCCCCCCC(=O)*; X1 = O=C(Cc1ccc(N[*:1])cc1)[*:2]; Myristoyl = CCCCCCCCCCCCCC(=O)*; ξAbu(3ξ-NH2) = CC(N)C(N)C(=O)O; Lauroyl = CCCCCCCCCCCC(=O)*; Decanoyl = CCCCCCCCCC(=O)*; Pip = O=C(O)[CH]1CCCCN1; ξD = NC(CC(=O)O)C(=O)O; ξPip = O=C(O)C1CCCCN1; ξV = CC(C)C(N)C(=O)O; ξP = O=C(O)C1CCCN1; OtBu = CC(C)(C)O*

The compounds below were run on Staphylococcus aureus (MSSA). Conditions: 24 h.
Outline: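 Broth microdilution MIC per NCCLS M7-A6 with doubling serial dilutions, in cation-adjusted Mueller-Hinton broth supplemented with 0.625 mM calcium.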
Compound CCCCCCCCCCCCCCC(=O)NC(CC(=O)O)C(=O)NC1C(=O)N2CCCCC2C(=O)NC(C(C)C(=O)O)C(=O)NC(CC(=O)O)C(=O)NCC(=O)NC(CC(=O)O)C(=O)NCC(=O)NC(C(C)NC(=O)CNC(C)=O)C(=O)NC(C(C)C)C(=O)N2CCCC2C(=O)NC1C (centres unmarked) [Compound 49, C15-Amphomycin-9-Gly-Ac] has an MIC of 4 µg/mL. Compound CCCCCCCCCCCCCCC(=O)Nc1ccc(CC(=O)NC(CC(=O)O)C(=O)NC2C(=O)N3CCCCC3C(=O)NC(C(C)C(=O)O)C(=O)NC(CC(=O)O)C(=O)NCC(=O)NC(CC(=O)O)C(=O)NCC(=O)NC(C(C)N)C(=O)NC(C(C)C)C(=O)N3CCCC3C(=O)NC2C)cc1 (stereo not drawn) [Compound 312, C15-(p-Apa)-Amphomycin] (Pentadecanoyl-[X1]D[ξAbu(βξ-NH2)][Pip][ξAsp(βξ-Me)]DGDG[ξAbu(3ξ-NH2)]VP; lactam 3-C; configuration not given here) has an MIC of 1 µg/mL. For CCCCCCCCCCCCCCC(=O)NC(CC(=O)O)C(=O)NC1C(=O)N2CCCCC2C(=O)NC(C(C)C(=O)O)C(=O)NC(CC(=O)O)C(=O)NCC(=O)NC(CC(=O)O)C(=O)NCC(=O)NC(C(C)NC(=O)[C@H](N)Cc2c[nH]c3ccccc23)C(=O)NC(C(C)C)C(=O)N2CCCC2C(=O)NC1C (stereo partly drawn) [Compound 264, C15-Amphomycin-(D-Trp)], the MIC was 8 µg/mL. In the case of CCCCCCCCCCCCC(=O)Nc1ccc(C(=O)NC(CC(=O)O)C(=O)NC2C(=O)N3CCCCC3C(=O)NC(C(C)C(=O)O)C(=O)NC(CC(=O)O)C(=O)NCC(=O)NC(CC(=O)O)C(=O)NCC(=O)NC(C(C)N)C(=O)NC(C(C)C)C(=O)N3CCCC3C(=O)NC2C)cc1 (centres unmarked) [Compound 285, C13-PABA-Amphomycin], the MIC was 0.25 µg/mL. Compound CCCCCCCCCC(=O)N[C@@H](Cc1csc2ccccc12)C(=O)NC(CC(=O)O)C(=O)NC1C(=O)N2CCCCC2C(=O)NC(C(C)C(=O)O)C(=O)NC(CC(=O)O)C(=O)NCC(=O)NC(CC(=O)O)C(=O)NCC(=O)NC(C(C)N)C(=O)NC(C(C)C)C(=O)N2CCCC2C(=O)NC1C (stereo partly drawn) [Compound 118, C10-(L-BBTA)-Amphomycin] (Decanoyl-[Bta][ξD][ξAbu(βξ-NH2)][ξPip][ξAsp(βξ-Me)][ξD]G[ξD]G[ξAbu(3ξ-NH2)][ξV][ξP]; lactam 3-C) has an MIC of 2 µg/mL. CCCCCCCCCCCC(=O)Nc1ccc(CC(=O)NC(CC(=O)O)C(=O)NC2C(=O)N3CCCCC3C(=O)NC(C(C)C(=O)O)C(=O)NC(CC(=O)O)C(=O)NCC(=O)NC(CC(=O)O)C(=O)NCC(=O)NC(C(C)NC(=O)CN)C(=O)NC(C(C)C)C(=O)N3CCCC3C(=O)NC2C)cc1 (stereo not drawn) [Compound 86, C12-(p-Apa)-Amphomycin-9-Gly] (Lauroyl-[X1]D[ξAbu(βξ-NH2)][Pip][ξAsp(βξ-Me)]DGDG[ξAbu(3ξ-NHCOCH2NH2)]VP; lactam 3-C; configuration not given here) gave an MIC of 0.25 µg/mL. CCCCCCCCCCCCCCC(=O)NC(CC(=O)O)C(=O)NC1C(=O)N2CCCCC2C(=O)NC(C(C)C(=O)O)C(=O)NC(CC(=O)O)C(=O)NCC(=O)NC(CC(=O)O)C(=O)NCC(=O)NC(C(C)NC(=O)[C@@H](N)CCCNC(=NC)NC)C(=O)NC(C(C)C)C(=O)N2CCCC2C(=O)NC1C (stereo partly drawn) [Compound 166, C15-Amphomycin-9-(ME)2Arg] (Pentadecanoyl-[ξD][ξAbu(βξ-NH2)][ξPip][ξAsp(βξ-Me)][ξD]G[ξD]G[ξAbu(βξ-NH2)](Arg(Me2s))[ξV][ξP]; lactam 2-C) gave an MIC of 32 µg/mL. Compound CCCCCCCCCCCCC(=O)N[C@@H](CC(=O)OC(C)(C)C)C(=O)NC(CC(=O)O)C(=O)NC1C(=O)N2CCCCC2C(=O)NC(C(C)C(=O)O)C(=O)NC(CC(=O)O)C(=O)NCC(=O)NC(CC(=O)O)C(=O)NCC(=O)NC(C(C)N)C(=O)NC(C(C)C)C(=O)N2CCCC2C(=O)NC1C (stereo partly drawn) [Compound 315, C13-(Asp-(OtBu))-Amphomycin] (Tridecanoyl-D(OtBu)[ξD][ξAbu(βξ-NH2)][ξPip][ξAsp(βξ-Me)][ξD]G[ξD]G[ξAbu(3ξ-NH2)][ξV][ξP]; lactam 3-C) has an MIC of 1 µg/mL. Compound CCCCCCCCCC(=O)Nc1cccc(CC(=O)NC(CC(=O)O)C(=O)NC2C(=O)N3CCCCC3C(=O)NC(C(C)C(=O)O)C(=O)NC(CC(=O)O)C(=O)NCC(=O)NC(CC(=O)O)C(=O)NCC(=O)NC(C(C)N)C(=O)NC(C(C)C)C(=O)N3CCCC3C(=O)NC2C)c1 (stereo not drawn) [Compound 113, C10-(M-Apa)-Amphomycin] (Decanoyl-[Phac(3-amino)]D[ξAbu(βξ-NH2)][Pip][ξAsp(βξ-Me)]DGDG[ξAbu(3ξ-NH2)]VP; lactam 3-C; configuration not given here) has an MIC of 16 µg/mL. CCCCCCCCCCCCCCC(=O)NC(CC(=O)O)C(=O)NC1C(=O)N2CCCCC2C(=O)NC(C(C)C(=O)O)C(=O)NC(CC(=O)O)C(=O)NCC(=O)NC(CC(=O)O)C(=O)NCC(=O)NC(C(C)NC(=O)CCCCNC(=O)CCN)C(=O)NC(C(C)C)C(=O)N2CCCC2C(=O)NC1C (stereo not drawn) [Compound 176, C15-Amphomycin-9-(5-Ava)-(β-Ala)] showed an MIC of 4 µg/mL. CCCCCCCCCCCCCCC(=O)NC(CC(=O)O)C(=O)NC1C(=O)N2CCCCC2C(=O)NC(C(C)C(=O)O)C(=O)NC(CC(=O)O)C(=O)NCC(=O)NC(CC(=O)O)C(=O)NCC(=O)NC(C(C)NC(=O)CCCNC(=O)[C@@H](N)C(C)C)C(=O)NC(C(C)C)C(=O)N2CCCC2C(=O)NC1C (some centres unmarked) [Compound 71, C15-Amphomycin-9-GABA-Val] was tested, and the MIC was 4 µg/mL. CCCCCCCCCCOc1ccc(C(=O)NC(CC(=O)O)C(=O)NC2C(=O)N3CCCCC3C(=O)NC(C(C)C(=O)O)C(=O)NC(CC(=O)O)C(=O)NCC(=O)NC(CC(=O)O)C(=O)NCC(=O)NC(C(C)N)C(=O)NC(C(C)C)C(=O)N3CCCC3C(=O)NC2C)cc1 (centres unmarked) [Compound 18, CH3—(CH2)9—O-p-Ph-C(═O)-Amphomycin] was tested, and the MIC was 0.5 to 1 µg/mL. For CCCCCCCCCCCCCCC(=O)NC(CC(=O)O)C(=O)NC1C(=O)N2CCCCC2C(=O)NC(C(C)C(=O)O)C(=O)NC(CC(=O)O)C(=O)NCC(=O)NC(CC(=O)O)C(=O)NCC(=O)NC(C(C)NC(=O)CSC(C)=O)C(=O)NC(C(C)C)C(=O)N2CCCC2C(=O)NC1C (stereo not drawn) [Compound 235, C15-Amphomycin-9-(S-Acetylthioglycolyl)] (Pentadecanoyl-D[ξAbu(βξ-NH2)][Pip][ξAsp(βξ-Me)]DGDG[X21]VP; lactam 2-C; configuration not given here), the MIC was 2 µg/mL. CCCCCCCCCCCCCCCCNC(=O)NC(CC(=O)O)C(=O)NC1C(=O)N2CCCCC2C(=O)NC(C(C)C(=O)O)C(=O)NC(CC(=O)O)C(=O)NCC(=O)NC(CC(=O)O)C(=O)NCC(=O)NC(C(C)N)C(=O)NC(C(C)C)C(=O)N2CCCC2C(=O)NC1C (centres unmarked) [Compound 249, CH3—(CH2)15—NH—C(═O)-Amphomycin] showed an MIC of 2 to 4 µg/mL. Work on CCCCCCCCCCCCCC(=O)N(C)CC(=O)NC(CC(=O)O)C(=O)NC1C(=O)N2CCCCC2C(=O)NC(C(C)C(=O)O)C(=O)NC(CC(=O)O)C(=O)NCC(=O)NC(CC(=O)O)C(=O)NCC(=O)NC(C(C)N)C(=O)NC(C(C)C)C(=O)N2CCCC2C(=O)NC1C (centres unmarked) [Compound 345, C14-Sar-Amphomycin] yielded an MIC of 64 µg/mL. CCCCCCCCCCCCCCC(=O)NC(CC(=O)O)C(=O)NC1C(=O)N2CCCCC2C(=O)NC(C(C)C(=O)O)C(=O)NC(CC(=O)O)C(=O)NCC(=O)NC(CC(=O)O)C(=O)NCC(=O)NC(C(C)NC(=O)[C@H]2CCCCN2)C(=O)NC(C(C)C)C(=O)N2CCCC2C(=O)NC1C (stereo partly drawn) [Compound 96, C15-Amphomycin-9-(D-Pip)] showed an MIC of 1 µg/mL. For CCCCCCCCCCCCCC(=O)Nc1ccc(CC(=O)NC(CC(=O)O)C(=O)NC2C(=O)N3CCCCC3C(=O)NC(C(C)C(=O)O)C(=O)NC(CC(=O)O)C(=O)NCC(=O)NC(CC(=O)O)C(=O)NCC(=O)NC(C(C)N)C(=O)NC(C(C)C)C(=O)N3CCCC3C(=O)NC2C)cc1 (stereo not drawn) [Compound 301, C14-(p-Apa)-Amphomycin] (Myristoyl-[X1]D[ξAbu(βξ-NH2)][Pip][ξAsp(βξ-Me)]DGDG[ξAbu(3ξ-NH2)]VP; lactam 3-C; configuration not given here), the MIC was 2 µg/mL.

Same assay, conditions: S. aureus (MSSA), CAMHB supplemented with 0.625 mM calcium, 24 hours at about 37° C.; a range = compound tested multiple times
In the case of CCCCCCCCCCCCCC(=O)NC(CC(=O)O)C(=O)NC1C(=O)N2CCCCC2C(=O)NC(C(C)C(=O)O)C(=O)NC(CC(=O)O)C(=O)NCC(=O)NC(CC(=O)O)C(=O)NCC(=O)NC(C(C)NC(=O)CCN)C(=O)NC(C(C)C)C(=O)N2CCCC2C(=O)NC1C (stereo not drawn) [Compound 59, C14-Amphomycin-9-(β-Ala)], the MIC was 59/0.5-1 μg/mL. CCCCCCCCCCCCCCC(=O)NC(CC(=O)O)C(=O)NC1C(=O)N2CCCCC2C(=O)NC(C(C)C(=O)O)C(=O)NC(CC(=O)O)C(=O)NCC(=O)NC(CC(=O)O)C(=O)NCC(=O)NC(C(C)NC(=O)CCCCC(C)=O)C(=O)NC(C(C)C)C(=O)N2CCCC2C(=O)NC1C (centres unmarked) [Compound 237, C15-Amphomycin-9-(6-Oxoheptanoyl)] showed an MIC of 16 µg/mL. CCCCCCCCCCCCC(=O)NC(CC(=O)O)C(=O)NC1C(=O)N2CCCCC2C(=O)NC(C(C)C(=O)O)C(=O)NC(CC(=O)O)C(=O)NCC(=O)NC(CC(=O)O)C(=O)NCC(=O)NC(C(C)NC(=O)CNC)C(=O)NC(C(C)C)C(=O)N2CCCC2C(=O)NC1C (centres unmarked) [Compound 55, C13-Amphomycin-9-Sar] was tested, and the MIC was 55/1 μg/mL. With CCCCCCCCCCCCCCCC(=O)NC(CC(=O)O)C(=O)NC1C(=O)N2CCCCC2C(=O)NC(C(C)C(=O)O)C(=O)NC(CC(=O)O)C(=O)NCC(=O)NC(CC(=O)O)C(=O)NCC(=O)NC(C(C)NC(=O)CNC)C(=O)NC(C(C)C)C(=O)N2CCCC2C(=O)NC1C (centres unmarked) [Compound 75, C16-Amphomycin-9-Sar] the MIC was 75/1 μg/mL. CCCCCCCCCCCCC(=O)NC(CC(=O)O)C(=O)NC1C(=O)N2CCCCC2C(=O)NC(C(C)C(=O)O)C(=O)NC(CC(=O)O)C(=O)NCC(=O)NC(CC(=O)O)C(=O)NCC(=O)NC(C(C)NC(=O)[C@@H](N)CCCN)C(=O)NC(C(C)C)C(=O)N2CCCC2C(=O)NC1C (some centres unmarked) [Compound 134, C13-Amphomycin-9-Orn] was tested, and the MIC was 134/32 μg/mL. In the case of CCCCCCCCCCCC(=O)NC(CC(=O)O)C(=O)NC1C(=O)N2CCCCC2C(=O)NC(C(C)C(=O)O)C(=O)NC(CC(=O)O)C(=O)NCC(=O)NC(CC(=O)O)C(=O)NCC(=O)NC(C(C)NC(=O)CCCN)C(=O)NC(C(C)C)C(=O)N2CCCC2C(=O)NC1C (centres unmarked) [Compound 57, C12-Amphomycin-9-GABA], the MIC was 57/16 μg/mL.
